Values joined by “and” are separate entries in the source; they are usually repeats but may differ in a detail not shown here. Equal values may be shown once. “Also recorded” adds a separate entry of the source. Read-outs that look alike come from different tables or passages of the source.
Legend:
[1] = molecular target: T1, cytochrome c oxidase (CcO) purified from heart mitochondria (Bos taurus, UniProt P00396+P07471+P68530); test: Cytochrome oxidase activity of solubilized mitochondrial CcO (oxygen uptake); assay type: biochemical; details: for enzyme activation at low concentrations: solubilized CcO from bovine heart mitochondria and from R. sphaeroides, authors' unpublished data
T1 construct: Cytochrome c oxidase was purified from the heart mitochondria of Bos taurus; from tissue; host or cells: bovine heart mitochondria

[2] = molecular target: T1, cytochrome c oxidase (CcO) purified from heart mitochondria; details: earlier studies on steroids, Triton X-100 and thyroid hormones; ref [47],[48],[49]; read-out: dissociation constant of the complex between DM and BABS; cited from earlier work
Description: The inhibition is notable by features characteristic of BABS regulatory site ligands such as some steroids and vitamin D [47], Triton Х-100 [48], and thyroid hormones Т3, Т4 [49]. […] The resistance of peroxidase activity is explained by the fact that the BABS ligands block the proton channel K, which is not involved in the p ...

[3] = Permeabilization of calcein-loaded asolectin liposomes (calcein release); details: 5 μM peptide
[4] = molecular target: T2, CcO in rat liver mitochondria (Rattus norvegicus, UniProt P00406+P05503); test: CcO activity in the mitochondrial membrane (respiration of rat liver mitochondria); assay type: biochemical; details: 100 μM peptide added in the course of respiration
T2 construct: Rat liver mitochondria were isolated by differential centrifugation; from tissue; host or cells: rat liver mitochondria
T2 sequence (P00406 whole entry, other chains not shown): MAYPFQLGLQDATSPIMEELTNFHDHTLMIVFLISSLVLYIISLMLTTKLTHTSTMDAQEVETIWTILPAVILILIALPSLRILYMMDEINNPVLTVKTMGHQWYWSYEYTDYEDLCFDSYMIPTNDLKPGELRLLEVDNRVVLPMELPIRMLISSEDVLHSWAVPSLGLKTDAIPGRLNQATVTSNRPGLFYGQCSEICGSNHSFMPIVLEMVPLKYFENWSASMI

Compound: CCCCCCCCCCCCO[C@@H]1O[C@H](CO)[C@@H](O[C@H]2O[C@H](CO)[C@@H](O)[C@H](O)[C@H]2O)[C@H](O)[C@H]1O [DM, dodecyl-maltoside, reference compound]
- Kd ([1]; dissociation constant of the enzyme-DM complex in the absence of P4 (Kc), solubilized mitochondrial CcO, X-axis intercept of Ki(app) for P4 versus [DM]): 500 µM and ~500 µM
- Kd [2]: 1000 to 1500 µM

Compound: C[C@H](CCC(=O)O)[C@H]1CC[C@H]2[C@@H]3[C@H](O)C[C@@H]4C[C@H](O)CC[C@]4(C)[C@H]3C[C@H](O)[C@]12C [cholate, reference compound]
- enzyme activation at low concentrations [1]: 1.5–2 fold

Compound: C[C@H](CCC(=O)O)[C@H]1CC[C@H]2[C@@H]3CC[C@@H]4C[C@H](O)CC[C@]4(C)[C@H]3C[C@H](O)[C@]12C [deoxycholate, reference compound]
- enzyme activation at low concentrations [1]: 1.5–2 fold
- maximum activation of CcO ([1]; solubilized mitochondrial CcO, 1 mM DM, 1.2 mM deoxycholate): approximately twice

Compound: Ac-STKLWEMLVELGNMDKAVKLWRKLSR-NH2 [A4]
- time to reach the 100% level of calcein release ([3]; 100% = after Triton X-100 0.1%): 3 min
- t1/2 of fluorescence increase (calcein release) ([3]; liposomes 0.1 mg lipid/mL, 20 mM MOPS/Tris pH 7.3, 0.2 mM EDTA, fluorescence 520 nm (excitation 490 nm)): ~18 s
- effect on respiration rate of mitochondria [4]: complete inhibition

Compound: Ac-WVGMALENRKLKKDRLKVLKMLRWT-NH2 [A1]
- Ki ([1]; solubilized bovine heart CcO 20 nM, oxygen uptake, Clark electrode, 25 °C, BM 50 mM Hepes/Tris pH 7.6, 50 mM KCl, 1 mM (0.05%) DM, 5 mM ascorbate, 0.1 mM TMPD, 10 μM cytochrome c, fit by Equation (1), read-out: Inhibition of CcO, Solubilized, Ki(app)): 0.0208 mM
- calcein release compared with P4 and A4 [3]: more than two orders of magnitude slower
- rate of fluorescence increase (calcein release) [3]: < 1 % of the final level per 1 min
- effect on respiration rate of mitochondria [4]: does not reduce the rate of enzyme activity; also recorded: almost does not change

— paper PMC9961948, “Interaction of Amphipathic Peptide from Influenza Virus M1 Protein with Mitochondrial Cytochrome Oxidase” (International Journal of Molecular Sciences, 2023)
